Experiments:
[1] = target: Serotransferrin (Homo sapiens) (UniProt P02787); test: Induction of iron removal from 59Fe]transferrin assessed as iron release after 3 hrs relative to control; set-up: concentration or dose not given beside the values
[2] = target: Serotransferrin (Homo sapiens) (UniProt P02787); test: Reduction of cellular iron uptake from 59Fe]transferrin in human SK-N-MC cells at 25 uM after 3 hrs relative to control; format: cell-based; set-up: scale not given: the % may be the effect or the level left
[3] = tested on: SK-N-MC; test: Induction of iron mobilization in 59Fe]transferrin labeled human SK-N-MC cells assessed as iron release at 25 uM after 3 hrs by gamma scintillation counter; format: functional
[4] = tested on: SK-N-MC; test: cells; settings: Homo sapiens, 72 h
Description: Antiproliferative activity against human SK-N-MC cells after 72 hrs by MTT assay

[5] = Octanol-water partition coefficient, log P of the compound; format: physicochemical
[6] = tested on: SK-N-MC; test: Cytotoxicity against 59Fe]transferrin prelabeled human SK-N-MC cells assessed as cell viability at 25 uM after 3 hrs; format: cell-based

Serotransferrin (Homo sapiens), sequence (P02787 whole entry): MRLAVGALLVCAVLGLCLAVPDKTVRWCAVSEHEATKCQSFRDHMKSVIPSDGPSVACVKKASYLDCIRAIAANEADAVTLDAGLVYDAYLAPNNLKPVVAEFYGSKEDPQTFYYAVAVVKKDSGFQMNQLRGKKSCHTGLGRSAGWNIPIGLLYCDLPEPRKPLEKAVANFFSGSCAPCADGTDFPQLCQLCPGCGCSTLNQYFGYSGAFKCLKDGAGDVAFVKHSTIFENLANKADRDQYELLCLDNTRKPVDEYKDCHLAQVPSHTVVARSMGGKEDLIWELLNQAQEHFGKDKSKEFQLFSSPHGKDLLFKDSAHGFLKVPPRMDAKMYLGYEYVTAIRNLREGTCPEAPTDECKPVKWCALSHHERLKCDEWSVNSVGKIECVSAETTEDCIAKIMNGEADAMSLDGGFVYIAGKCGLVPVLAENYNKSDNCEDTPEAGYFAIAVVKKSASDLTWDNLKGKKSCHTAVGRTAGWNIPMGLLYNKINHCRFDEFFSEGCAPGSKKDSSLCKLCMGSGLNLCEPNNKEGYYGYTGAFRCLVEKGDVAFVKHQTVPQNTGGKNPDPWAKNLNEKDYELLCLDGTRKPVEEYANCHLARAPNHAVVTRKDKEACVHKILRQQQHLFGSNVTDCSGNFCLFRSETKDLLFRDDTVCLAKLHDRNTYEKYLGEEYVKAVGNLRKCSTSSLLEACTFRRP

Compound Cc1c(O)c(=O)ccn1C has an Activity [1] of 20%.
For CC(=O)N(O)CCCCCNC(=O)CCC(=O)N(O)CCCCCNC(=O)CCC(=O)N(O)CCCCCN [DEFEROXAMINE], the Activity [2] was 83%, the Activity [3] was 13% and the Activity [1] was 14.2%. The IC50 [4] was 7350 nM.
Work on NC(=S)NN=C(c1ccccn1)c1ccccn1 yielded an Activity [1] of 1.6%.
Work on C/C(=N\NC(N)=S)c1ccccn1 yielded an Activity [2] of 4%, an Activity [1] of 1% and an IC50 [4] of 3530 nM. For the same compound, the logP [5] was 1.52.
Compound Cc1ncc(CO)c(/C=N/NC(=O)c2ccncc2)c1O [PYRIDOXAL ISONICOTINOYL HYDRAZONE] has an Activity [2] of 11% and an Activity [3] of 37%.
With C/C(=N\NC(=S)N(C)C)c1ccccn1 the Activity [2] was 4%, the Activity [1] was 2.7% and the IC50 [4] was 1 nM. For the same compound, the logP [5] was 1.8.
CN(C)C(=S)NN=C(c1ccccn1)c1ccccn1 showed an Activity [2] of 7%, an Activity [3] of 27% and an Activity [1] of 2.9%.
Compound O=C(N/N=C/c1c(O)ccc2ccccc12)c1ccncc1 has an IC50 [4] of 500 nM.
In the case of C=CCNC(=S)N/N=C(\C)c1ccccn1, the Activity [2] is reported as 4%, the Activity [1] is reported as 1.7% and the IC50 [4] is reported as 1 nM. The logP [5] was 1.76.
For NC(=S)N/N=C(\c1ccccc1)c1ccccn1, the Activity [1] was 2%.
For C/C(=N\NC(=S)Nc1ccccc1)c1ccccn1, the Activity [2] was 35%, the Activity [3] was 33% and the Activity [1] was 0.9%. The Activity [6] was “Non-toxic”, the IC50 [4] was 1 nM and the logP [5] was 2.99.
For CCNC(=S)N/N=C(\c1ccccc1)c1ccccn1, the Activity [1] was 3.1% and the IC50 [4] was 3 nM.
Work on CNC(=S)N/N=C(\C)c1ccccn1 yielded an Activity [2] of 4%, an Activity [1] of 1.8% and an IC50 [4] of 11 nM. The logP [5] was 2.7.
With CCNC(=S)N/N=C(\C)c1ccccn1 the Activity [2] was 4%, the Activity [1] was 2.1% and the IC50 [4] was 2 nM. It also gave a logP [5] of 1.52.

Reference: ChEMBL document CHEMBL1140951, “2-Acetylpyridine thiosemicarbazones are potent iron chelators and antiproliferative agents: redox activity, iron complexation and characterization of their antitumor activity” (J Med Chem, 2009)
